Here are results for one molecule from ChEMBL document CHEMBL5226392, “Anti-inflammatory Quinoline Alkaloids from the Roots of Waltheria indica” (J Nat Prod, 2023).

Data set [1] can be described thus: Antiinflammatory activity in human 293/NFkB-Luc cells assessed as inhibition of TNF-alpha induced NFkaapaB activity at 50 uM preincubated for 15 mins followed by TNF-alpha induction and measured after 6 hrs by luminescence based assay relative to control. The class given is functional. The note with it: 6.25 h, time 375 min.
Data set [2] deals with RAW264.7. Description: Antiinflammatory activity in mouse RAW264.7 cells assessed as inhibition of LPS-induced iNOS protein expression at 30 uM preincubated for 15 mins followed by LPS stimulation and measured after 24 hrs by Western blot analysis. Type of data set: functional, cell-based. The conditions noted are these: time 1215.0 min. Background: In western blotting, separated proteins are transferred to a membrane and probed.

Data set [3] can be described thus: Cytotoxicity against TNF-alpha induced human 293/NFkB-Luc cells assessed as increase in cell survival at 50 uM preincubated for 15 mins followed by TNF-alpha induction and measured after 6 hrs by MTT assay relative to control. The class given is toxicity, cell-based. The conditions noted are these: TNF-alpha induced 293/NFkB-Luc cells, time 375 min, read-out: Activity. On the technique in general: Tetrazolium assays rely on reduction of a dye to a coloured formazan, in cell work by metabolically active cells.

Data set [4] has as its system RAW264.7. Nature of the data set: Inhibition of NO production in LPS-stimulated mouse RAW264.7 cells at 50 uM preincubated for 15 mins followed by LPS stimulation and measured after 20 hrs by Griess reagent based assay relative to control. The conditions noted are these: RAW264.7, 20.25 h, time 1215 min. Type of data set: functional. Background: Nitrite, measured by Griess reagent, commonly stands in for NO production.

The test system of data set [5] is RAW264.7. Nature of the data set: Antiinflammatory activity in mouse RAW264.7 cells assessed as inhibition of LPS-induced […] at 10 to 30 uM preincubated for 15 mins followed by LPS stimulation and measured after 4 hrs by qPCR analysis. The conditions noted are these: dose 10-30 µM, time 255.0 min. The class given is functional, cell-based.
A short description of data set [6]: Cytotoxicity against LPS-stimulated mouse RAW264.7 cells assessed as cell survival at 50 uM preincubated for 15 mins followed by LPS stimulation and measured after 20 hrs by CCK-8 assay relative to control. The conditions noted are these: LPS-stimulated RAW264.7 cells, time 1215 min, read-out: Activity. The class given is toxicity, cell-based.
Data set [7] relates to RAW264.7. Description: Inhibition of NO production in LPS-stimulated mouse RAW264.7 cells preincubated for 15 mins followed by LPS stimulation and measured after 20 hrs by Griess reagent based assay. The class given is functional, cell-based.

Active and inactive are the calls of the source. No cut-off for these calls is given here.

Broadly, the inhibition is the share of the control response that was lost under treatment. Usually IC50 stands for the concentration that gives 50% inhibition. A lower IC50 goes with inhibition by little substance. Turning to `COc1c(C)[nH]c2c(c1=O)[C@@H](CCCCCc1ccccc1)CCC2`, the inhibition at 50 µM in data set [1] is below 50%; with RAW264.7 [4], 97.2%. Further, the result with RAW264.7 [2] and with RAW264.7 [5] was Active. Besides, the viability at 6 h, 50 µM in data set [3] stood at 77.2%. Further, in data set [6], the viability at 20 h, 50 µM came to 84.3%. In the data set on RAW264.7 [7], this molecule displayed an IC50 of 11.7 µM.
